# Reference: ChEMBL document CHEMBL1781990, “Synthesis and pharmacological activity of O-aminoalkyl derivatives of 7-hydroxycoumarin” (2011)
# The source made the active and inactive calls. The calls are words filed in the database; no cut-off is given here.
# Experiments:
# Micrococcus luteus [1] = test: Antibacterial against Micrococcus luteus ATCC 9341 after 24 hrs by NCCLS M7-A6 method; format: functional
# Bacillus subtilis [2] = test: Antibacterial against Bacillus subtilis ATCC 6633 after 24 hrs by NCCLS M7-A6 method; format: functional
# Bacillus cereus [3] = test: Antibacterial against Bacillus cereus ATCC 11778 after 24 hrs by NCCLS M7-A6 method; format: functional
# Staphylococcus aureus [4] = test: Antibacterial against Staphylococcus aureus ATCC 6538 after 24 hrs by NCCLS M7-A6 method; format: functional; conditions: ATCC 6538, 24 h
# Staphylococcus aureus [5] = test: Antibacterial against Staphylococcus aureus ATCC 6538P after 24 hrs by NCCLS M7-A6 method; format: functional
# Escherichia coli [6] = test: Antibacterial against Escherichia coli ATCC 10536 after 24 hrs by NCCLS M7-A6 method; format: functional; conditions: ATCC 10536, 24 h
# Staphylococcus aureus [7] = test: Antibacterial against Staphylococcus aureus ATCC 6538P at 20 mg/mL after 24 hrs by NCCLS M7-A6 method; format: functional, organism-based
# Escherichia coli [8] = test: Antibacterial against Escherichia coli ATCC 8739 at 20 mg/mL after 24 hrs by NCCLS M7-A6 method; format: functional, organism-based
# Escherichia coli [9] = test: Antibacterial against Escherichia coli ATCC 10536 at 20 mg/mL after 24 hrs by NCCLS M7-A6 method; format: functional, organism-based
# 786-0 = test: Cytotoxicity against human 786-0 cells assessed as cell growth inhibition at 10^-5 M; format: functional, cell-based
# Cancer cell lines [10] = test: Cytotoxicity against human lung cancer cells assessed as cell growth inhibition at 10^-5 M; format: functional, cell-based
# Leukemia cell = test: Cytotoxicity against human leukemia cells assessed as cell growth inhibition at 10^-5 M; format: functional, cell-based
# Cancer cell lines [11] = test: Cytotoxicity against human colon cancer cells assessed as cell growth inhibition at 10^-5 M; format: functional, cell-based
# Cancer cell lines [12] = test: Cytotoxicity against human CNS cancer cells assessed as cell growth inhibition at 10^-5 M; format: functional, cell-based
# Melanoma cell = test: Cytotoxicity against human melanoma cells assessed as cell growth inhibition at 10^-5 M; format: functional, cell-based
# Cancer cell lines [13] = test: Cytotoxicity against human ovarian cancer cells assessed as cell growth inhibition at 10^-5 M; format: functional, cell-based
# Cancer cell lines [14] = test: Cytotoxicity against human renal cancer cells assessed as cell growth inhibition at 10^-5 M; format: functional, cell-based
# Cancer cell lines [15] = test: Cytotoxicity against human prostate cancer cells assessed as cell growth inhibition at 10^-5 M; format: functional, cell-based
# Cancer cell lines [16] = test: Cytotoxicity against human breast cancer cells assessed as cell growth inhibition at 10^-5 M; format: functional, cell-based
# Micrococcus luteus [17] = test: Antibacterial against Micrococcus luteus ATCC 9341 at 20 mg/mL after 24 hrs by NCCLS M7-A6 method; format: functional, organism-based
# Micrococcus luteus [18] = test: Antibacterial against Micrococcus luteus ATCC 10240 at 20 mg/mL after 24 hrs by NCCLS M7-A6 method; format: functional, organism-based
# Bacillus subtilis [19] = test: Antibacterial against Bacillus subtilis ATCC 6633 at 20 mg/mL after 24 hrs by NCCLS M7-A6 method; format: functional, organism-based
# Staphylococcus aureus [20] = test: Antibacterial against Staphylococcus aureus ATCC 6538 at 20 mg/mL after 24 hrs by NCCLS M7-A6 method; format: functional, organism-based
# Bacillus cereus [21] = test: Antibacterial against Bacillus cereus ATCC 11778 at 20 mg/mL after 24 hrs by NCCLS M7-A6 method; format: functional, organism-based
# HL-60 = test: Cytotoxicity against human HL60 cells assessed as cell growth inhibition at 10^-5 M; format: functional, cell-based
# [22] = Micrococcus luteus, ATCC 9341, 24 h, read-out: MIC
# [23] = Bacillus subtilis, ATCC 6633, 24 h, read-out: MIC
# [24] = Bacillus cereus, ATCC 11778, 24 h, read-out: MIC
Compound,MIC (Micrococcus luteus [1]; [22]) [mM],MIC (Bacillus subtilis [2]; [23]) [mM],MIC (Bacillus cereus [3]; [24]) [mM],MIC (Staphylococcus aureus [4]) [mM],MIC (Staphylococcus aureus [5]) [mM],MIC (Escherichia coli [6]) [mM],Activity (Staphylococcus aureus [7]),Activity (Escherichia coli [8]),Activity (Escherichia coli [9]),Activity (Staphylococcus aureus [20]),other results
CC1CCCCN1CCOc1ccc2ccc(=O)oc2c1 (stereo not drawn),15.4,30.9,30.9,46.3,61.8,30.9,–,–,–,–,–
CC(=O)c1c(O)ccc2c(C)cc(=O)oc12,68.7,45.8,22.9,68.7,–,–,inactive,inactive,inactive,–,–
Cc1cc(=O)oc2cc(O)ccc12 [HYMECROMONE],–,–,85.1,–,–,–,inactive,inactive,inactive,inactive,Activity (Micrococcus luteus [17]): inactive; Activity (Micrococcus luteus [18]): inactive; Activity (Bacillus subtilis [19]): inactive
Cc1cc(=O)oc2cc(OCCN(C)Cc3ccccc3)ccc12,40.7,–,–,–,–,–,inactive,inactive,inactive,inactive,Activity (Bacillus subtilis [19]): inactive; Activity (Bacillus cereus [21]): inactive
CCN(CC)CCOc1cc2oc(=O)cc(C)c2cc1C(C)=O.Cl,–,–,–,7.1,7.1,7.1,–,–,–,–,MIC (Micrococcus luteus [1]): 1.8 mM; MIC (Bacillus subtilis [2]): 0.4 mM; MIC (Bacillus cereus [3]): 0.4 mM
CC(=O)c1c(OCCN(C(C)C)C(C)C)ccc2c(C)cc(=O)oc12,25,–,–,–,–,–,inactive,inactive,inactive,inactive,Activity (Micrococcus luteus [18]): inactive; Activity (Bacillus subtilis [19]): inactive; Activity (Bacillus cereus [21]): inactive
CC(=O)c1c(OCCN2CCOCC2)ccc2c(C)cc(=O)oc12,30.2,–,–,–,–,–,inactive,inactive,inactive,inactive,Activity (Bacillus subtilis [19]): inactive; Activity (Bacillus cereus [21]): inactive
CC(=O)c1cc2c(C)cc(=O)oc2cc1OCCN(C(C)C)C(C)C,37.5,12.5,12.5,–,–,–,inactive,inactive,inactive,inactive,–

# Further lines, with some results ahead:
MIC (Micrococcus luteus [1]; [22]) [mM],MIC (Bacillus subtilis [2]; [23]) [mM],MIC (Bacillus cereus [3]; [24]) [mM],MIC (Staphylococcus aureus [4]) [mM],MIC (Staphylococcus aureus [5]) [mM],MIC (Escherichia coli [6]) [mM],Compound,Activity (Staphylococcus aureus [7]),Activity (Escherichia coli [8]),Activity (Escherichia coli [9]),Activity (Staphylococcus aureus [20]),other results
1.4,21.9,21.2,21.2,21.2,21.2,C[N+](C)(CCOc1ccc2ccc(=O)oc2c1)Cc1ccccc1,–,–,–,–,–
6,2.4,2.4,35.7,23.8,35.7,CC(=O)c1c(OCCN(C)Cc2ccccc2)ccc2c(C)cc(=O)oc12,–,inactive,–,–,–
7.4,2.9,2.9,44.1,44.1,14.7,Cc1cc(=O)oc2cc(OCCN(C(C)C)C(C)C)ccc12,–,–,–,–,growth inhibition (GI) (786-0): inactive; growth inhibition (GI) (Cancer cell lines [10]): inactive; growth inhibition (GI) (Leukemia cell): inactive; growth inhibition (GI) (Cancer cell lines [11]): inactive; growth inhibition (GI) (Cancer cell lines [12]): inactive; growth inhibition (GI) (Melanoma cell): inactive; growth inhibition (GI) (Cancer cell lines [13]): inactive; growth inhibition (GI) (Cancer cell lines [14]): inactive; growth inhibition (GI) (Cancer cell lines [15]): inactive; growth inhibition (GI) (Cancer cell lines [16]): inactive
8.4,8.4,8.4,–,67.2,16.8,CCN(CC)CCOc1ccc2ccc(=O)oc2c1,–,–,–,inactive,–
12.3,24.6,24.6,24.6,24.6,49.2,CC(=O)c1c(OCCN2CCCCC2C)ccc2c(C)cc(=O)oc12 (stereo not drawn),–,–,–,–,growth inhibition (GI) (786-0): Active; growth inhibition (GI) (HL-60): Active
2,2,2,32.1,32.1,8,CCN(CC)CCOc1ccc2c(C)cc(=O)oc2c1,–,–,–,–,–
6.6,1.6,1.6,26.3,26.3,26.3,CC(=O)c1cc2c(C)cc(=O)oc2cc1OCCN1CCCCC1C (stereo not drawn),–,inactive,–,–,–
8.6,69.1,69.1,–,69.1,51.8,Cc1cc(=O)oc2cc(OCCN3CCOCC3)ccc12,–,–,–,inactive,–
